Data on eight molecules can be found in patent US7919464B2, “Use of a peptide that interacts with αvβ3 integrin of endothelial cell” (Kyungpook National University Industry-Academic Cooperation …, priority 2003, dated 2011).

Ends that are not written are not given here.

As a reminder, the IC50 is the concentration at which inhibition is half-maximal. Read a high IC50 as lower potency.

Assay [1] has as its system HUVECs. Put plainly: HUVECs adhesion to plates coated with βig-h3, its fas-1 domains or mutants. In kind it is cell-based, human. The settings on record: 10 μg/ml protein coated on plate; attached cells by absorbance at 405 nm; control BSA. As for the experimental part: Cell adhesion assay was performed according to the method described by Kim, J.-E. et al., J. Biol. Chem., 277:4615946165, 2002. For this purpose, 10 μg/ml of each of the recombinant proteins (βig-h3 His-β-b, βig-h3 D-I, βig-h3 D-II, βig-h3 D-III and βig-h3 D-IV) prepared in Example 1 was placed into a flat-bottomed 96-well ELISA (enzyme-linked immunosorbent assay) plate (Costar, Corning Inc., NY) and then incubated overnight at 4° C., to coat the surface of the plate. As a control, 2% BSA was coated on the plate. Then, the plate was treated with PBS (phosphate-buffered saline) containing 2% BSA, and blocked at room temperature for one hour.
Meanwhile, HUVECs (human umbilical vein endothelial cells; Clonetics, San Diego, Calif.) were incubated in EGM medium (Clonetics, San Diego, Calif.) containing 2% FBS (Fetal Bovine Serum) under a condition of 37° C. and 5% CO2. The incubated cells were suspended in medium at a density of 3×10^5 cells/ml, and 0.1 ml of the cell suspension was added to each well of the plate. Next, the cells were incubated at 37° C. for 30 minutes and washed one time with PBS buffer to remove cells which had not been attached to the plate. Attached cells were added with 50 mM citrate buffer (pH 5.0) containing 3.75 mM p-nitrophenyl-N-acetyl β-D-glycosaminide and 0.25% Triton X-100, and incubated at 37° C. for one hour. Thereafter, 50 mM glycine buffer (pH 10.4) containing 5 mM EDTA was added to block the activity of the enzyme. The absorbance was measured at a 405-nm in a Bio-Rad model 550 microplate reader. Here, the higher the number of cells adhered to the plate, the higher the absorbance.
Each of the deletion mutants was generated by PCR using a cDNA template encoding the fourth fas-1 domain (SEQ ID NO: 5) (Kim, J.-E. et al., J. Biol. Chem., 275:30907-30915, 2000). Each of the PCR-amplified DNA fragments was cloned into the EcoRV/Xhol sites of the pET-29b(+) vector (Novagen; Madison, Wis.). The mutations were confirmed by sequence analysis, and the deletion mutants were expressed and purified according to a prior method (Kim, J.-E., et al., J. Cell. Biochem., 77:169-178, 2000). Thereafter, the cell adhesion activity of each of the deletion mutants was tested in the same manner as in Example 2.
Previously, the present inventors reported that an YH motif, which contains tyrosine-histidine residues highly conserved in the fragment corresponding to amino acids 548-614 of SEQ ID NO: 1, and several leucine and isoleucine residues adjacent to the tyrosine-histidine residues, binds to the αvβ5 integrin (Kim, J.-E., et al., J. Biol. Chem., 277:46159-46165, 2002). Thus, the present inventors suspected that the YH motif may also interact with the αvβ3 integrin to mediate endothelial cell adhesion. For this reason, in the present invention, the tyrosine-histidine residues conserved in the fas-1 domains, and/or the leucine and isolucine residues adjacent to the tyrosine-histidine residues, were substituted in various combinations by alanine or serine (Kim, J.-E., et al., J. Biol. Chem. 277:4615946165, 2002)(see FIG. 4b). The amino acid sequences of the prepared YH motif mutants are shown in SEQ ID NO: 17 to SEQ ID NO: 22. The mutations were confirmed by sequence analysis. Then, the substitution mutants were expressed and purified according to a known method (Kim, J.-E., et al., J. Cell. Biochem., 77:169-178, 2000). The substitution mutants were tested for their cell adhesion activity according to the same manner as in Example 2.

Assay [2] deals with C57/BL6 mice. Put plainly: In vivo Matrigel plug assay. Particulars: subcutaneous, 7 days. As for the experimental part: In the present invention, the angiogenesis-inhibitory effect of the YH18 synthetic peptide, which had been proven in vitro assay according to Example 8-1, was assayed in vivo. An in vivo Matrigel plug assay was performed according to the method described by Maeshima, Y. et al., J. Biol. Chem., 275:23745-23750, 2000. 5-6 week old male C57/BL6 mice purchased from Hyochang scientific company, Korea, were used.
First, Matrigel (BD Biosciences, MA) was mixed with 20 units/ml heparin, 150 ng/ml bFGF (basic fibroblast growth factor, R&D system, International, Inc), and a YH18 synthetic peptide represented by SEQ ID NO: 26. As a control to the YH18 synthetic peptide, an YH18-con. peptide was used, and a control to peptide treatment was treated with 5% DMSO (solvent). The Matrigel mixture was injected subcutaneously to the C57/BL6 mice. After 7 days, the mice were sacrificed, and the Matrigel plugs were removed and fixed in 4% paraformaldehyde. The Matrigel plugs were buried in paraffin, sectioned and stained with H&E. Their sections were examined by light microscope, the number of blood vessels from 4-6 HPF (high power fields; ×200) was counted and averaged. Each group consisted of 3 or 4 Matrigel plugs.

Assay [3] has as its system HUVECs. Nature of the assay: HUVECs migration assay in transwell plate coated with βig-h3. In kind it is cell-based, human. The settings on record: 500 μM or 1 mM peptide of SEQ ID NO: 26. As for the experimental part:
Firstly, to examine whether βig-h3 is involved in the migration of endothelial cells, the present inventors performed cell migration assay. The cell migration assay was performed in a transwell plate (8 μm pore size, Costar, Cambridge, Mass.). The undersurface of the membrane was coated with the recombinant βig-h3 His-β-b protein (10 μg/ml) prepared in Example 1 at 4° C., and then, blocked for 1 hour at room temperature with PBS buffer containing 2% BSA. Meanwhile, HUVECs were added with an anti-αvβ3 antibody (LM609) or an anti-αvβ5 antibody (P1F6) and preincubated at 37° C. for 30 minutes. A control was added with mouse IgG. Then, the HUVECs preincubated with the antibody were suspended in medium at a density of 3×10^5 cells/ml, and 0.1 ml of the cell suspension was added to the upper compartment of the filter. The cells were allowed to migrate at 37° C. for 6-8 hours.
Migration was terminated by removing the cells from the upper compartment of the filter with a cotton swab. The filters were fixed with 8% glutaraldehyde and stained with crystal violet. The extent of cell migration was determined by light microscope, and within each well, cell counting was done in nine randomly selected fields HPF (Microscopic high power fields, ×200).
Then, the present inventors examined whether the migration of endothelial cells is inhibited by the YH18 synthetic peptide. […]

In assay [4] the test system is HUVECs.
Experimental: First, 100 μl of Matrigel (Chemicon, International Inc, Temecula, Calif.) was added to each well of a 96-well plate and allowed to polymerize. HUVECs were suspended in medium at a density of 3×10^5 cells/ml, and 0.1 ml of the cell suspension was added to each well of the well plate coated with Matrigel. At this time, 500 μM or 1 mM of the YH18 synthetic peptide represented by SEQ ID NO: 26 was added together. A control to peptide treatment was treated with 5% DMSO (solvent), and a control to the YH18 synthetic peptide was treated with the YH18-con. peptide represented by SEQ ID NO: 27. Thereafter, the cells were incubated at 37° C. for 16-18 hours. The cells were photographed, and endothelial tubes were counted and averaged.

With “D-IV-AA: D-IV mutant, tyrosine-histidine residues substituted with alanine-alanine (GDAKELANILKAAIGDEILVSGGIGALVR)”, in assay [1], the “endothelial cell (HUVECs) adhesion activity” value (from here on “endothelial cell”) was “equal to those of the fas-1 domain (D-IV) and its fragment (H1H2(6))”.

Turning to “D-IV-AAR: D-IV mutant, tyrosine-histidine to alanine-alanine and isoleucine/leucine on one side to serine (GDAKELANILKAASGDESSVSGGIGALVR; D-IV-AAR)”, the “endothelial cell” value in assay [1] is “somewhat lower than those of D-IV-LAA and D-IV-AAR”.

On to “D-IV-L: D-IV mutant, leucine and isoleucine residues adjacent to one side of tyrosine-histidine substituted with serine (GDAKESANSSKYHIGDEILVSGGIGALVR; D-IV-L)”, for which the “endothelial cell” value in assay [1] was “equal to those of the fas-1 domain (D-IV) and its fragment (H1H2(6))”.

For the molecule “D-IV-LAA: D-IV mutant, tyrosine-histidine to alanine-alanine and isoleucine/leucine on one side to serine (GDAKESANSSKAAIGDEILVSGGIGALVR; D-IV-LAA)”, the “endothelial cell” value in assay [1] is “somewhat lower than those of D-IV-LAA and D-IV-AAR”.

“D-IV-LYHR: D-IV mutant, all isoleucine and leucine residues on both sides of tyrosine-histidine substituted with serine (GDAKESANSSKYHSGDESSVSGGIGALVR; D-IV-LYHR)”: the “endothelial cell” value in assay [1] was “reduced to half that of the fas-1 domain”.

In the case of “D-IV-R: D-IV mutant, leucine and isoleucine residues adjacent to one side of tyrosine-histidine substituted with serine (GDAKELANILKYHSGDESSVSGGIGALVR; D-IV-R)”, in assay [1], the “endothelial cell” value is “equal to those of the fas-1 domain (D-IV) and its fragment (H1H2(6))”.

For “KELANILKYHIGDEILVS [YH18 synthetic peptide]”, the “number of blood vessels in Matrigel plug” value in assay [2] (500 μM peptide in Matrigel with bFGF and heparin) is “significant reduction in the number of blood vessels”. Besides, the “inhibition of angiogenesis in Matrigel plug” value in assay [2] (1 mM peptide in Matrigel with bFGF and heparin) is recorded as “complete inhibition of angiogenesis”. The “inhibition of HUVECs migration toward βig-h3 by YH18 synthetic peptide” value in assay [3] is reported as “inhibited the migration of endothelial cells toward βig-h3”. The same molecule returned an IC50 in assay [4] of 500 µM. The “inhibition of HUVECs tube formation” value in assay [4] (500 μM or 1 mM peptide, dose-dependent) is reported as “selectively inhibited”.

B1: ΔH1H2(6): smallest deletion mutant fragment, amino acids 548-614 of SEQ ID NO: 1, SEQ ID NO: 10 (protein, listed as Homo sapiens)
chain: RALPPRERSRLLGDAKELANILKYHIGDEILVSGGIGALVRLKSLQGDKLEVSLKNNVVSVNKEPVA
Turning to B1, the “endothelial cell” value in assay [1] was “still retains endothelial cell adhesion activity”.
